In US20260274799A1, “HETEROCYCLIC DERIVATIVES, COMPOSITIONS AND USES THEREOF” (DANATLAS PHARMACEUTICALS CO., LTD., priority 2023, published 2026) one finds Emax and EC50 data, which are given here for 25 molecules.

The test addresses T1, PPARγ-LBD (UniProt ID: P37231-2) (Homo sapiens, UniProt P37231).
T1 construct: PPARγ-LBD (UniProt ID: P37231-2) was expressed and purified in insect system; made in house
T1 sequence (P37231 238-503 limits assumed): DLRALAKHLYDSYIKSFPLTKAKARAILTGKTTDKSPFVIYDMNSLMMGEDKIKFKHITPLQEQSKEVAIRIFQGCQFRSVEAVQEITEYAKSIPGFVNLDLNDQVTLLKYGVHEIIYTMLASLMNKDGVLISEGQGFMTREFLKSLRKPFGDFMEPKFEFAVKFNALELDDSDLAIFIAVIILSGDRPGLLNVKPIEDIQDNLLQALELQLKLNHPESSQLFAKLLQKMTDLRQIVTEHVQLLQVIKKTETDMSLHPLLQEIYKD
Put plainly: PPARγ-SMRT recruitment assay (TR-FRET). Type of test: biochemical. The note with it: for Emax: 1 h, max value of % Activation, high control 10 uM control compound, low control 1% DMSO, read-out: Top %; for EC50: TR-FRET, SMRT peptide recruitment to PPARγ-LBD, 120 min pre-incubation. The procedure: PPARγ TR-FRET assay was initiated to evaluate potential activatory effect of the compounds of the present disclosure for SMRT recruitment to PPARγ protein. PPARγ-LBD (UniProt ID: P37231-2) was expressed and purified in insect system and stored at −80° C. in aliquots. Biotinylated SMRT peptide was synthesized (Biotin-[…]). 5 μL protein solution mixture consisting of 10 nM PPARγ-LBD and 2 nM Anti-His Eu (Cisbio, 61HISKLA) in assay buffer (25 mM HEPES pH7.4, 25 mM KCl, 1 mM EDTA, 0.01% BSA, 0.01% Tween-20, 1 mM TCEP) was added to 384-well plates containing duplicate 10-point dose response titration of compounds in 5 μL assay buffer (1% f.c. DMSO(v/v)). After 120 min pre-incubation at room temperature, 5 μL peptide solution mixture consisting of 50 nM Biotin-SMRT peptide and 25 nM Streptavidin-XL665 (Cisbio, 610SAXLA) added to plates. Plates were incubated for 60 min. and read in CLARIOstar Plus plate reader with Ex/Em 620 nm/[…]. Average TR-FRET ratio of high control (Wells with 10 uM control compound) was calculated as High Control (HC). Average TR-FRET ratio of low control (Wells with 1% DMSO) was calculated as Low control (LC). For one compound, top % is the max value of % Activation.
EC50 values were determined by fitting the data to the standard 4 parameters with Hill Slope using GraphPad Prism software. […] ND: No Determine.

A word on the EC50: it is the concentration at which the effect is half-maximal. Higher therefore signals weaker potency. For the molecule `CC(C)(O)C#Cc1c(F)cc2[nH]c(-c3cc(C#N)ccc3S(C)(=O)=O)cc(=O)c2c1F` [Example 1, 3-(5,7-Difluoro-6-(3-hydroxy-3-methylbut-1-yn-1-yl)-4-oxo-1,4-dihydroquinolin-2-yl)-4-(methylsulfonyl)benzonitrile], the Emax was determined as 495% and the EC50 was < 100 nM.
On to `C#Cc1c(F)cc2[nH]c(-c3cc(C#N)ccc3S(C)(=O)=O)cc(=O)c2c1F` [Example 2, 3-(6-Ethynyl-5,7-difluoro-4-oxo-1,4-dihydroquinolin-2-yl)-4-(methylsulfonyl)benzonitrile], for which the Emax turned out to be 311% and the EC50 was < 100 nM.
With `CS(=O)(=O)c1ccc(C#N)cc1-c1cc(=O)c2c(F)c(C#CCO)c(F)cc2[nH]1` [Example 3, 3-(5,7-Difluoro-6-(3-hydroxyprop-1-yn-1-yl)-4-oxo-1,4-dihydroquinolin-2-yl)-4-(methylsulfonyl)benzonitrile], the Emax is 300% and the EC50 was < 100 nM.
As for `C[C@@H](O)C#Cc1c(F)cc2[nH]c(-c3cc(C#N)ccc3S(C)(=O)=O)cc(=O)c2c1F` [Example 4, (R)-3-(5,7-Difluoro-6-(3-hydroxybut-1-yn-1-yl)-4-oxo-1,4-dihydroquinolin-2-yl)-4-(methylsulfonyl)benzonitrile], the Emax is 200% and the 50% effective concentration (EC50) is < 100 nM.
As to `C[C@H](O)C#Cc1c(F)cc2[nH]c(-c3cc(C#N)ccc3S(C)(=O)=O)cc(=O)c2c1F` [Example 5, (S)-3-(5,7-Difluoro-6-(3-hydroxybut-1-yn-1-yl)-4-oxo-1,4-dihydroquinolin-2-yl)-4-(methylsulfonyl)benzonitrile], the Emax is 367% and the EC50 was < 100 nM.
Take `CS(=O)(=O)c1ccc(C#N)cc1-c1cc(=O)c2c(F)c(C#CCCO)c(F)cc2[nH]1` [Example 6, 3-(5,7-Difluoro-6-(4-hydroxybut-1-yn-1-yl)-4-oxo-1,4-dihydroquinolin-2-yl)-4-(methylsulfonyl)benzonitrile]: the Emax was 266% and the EC50 was < 100 nM.
Turning to `CS(=O)(=O)c1ccc(C#N)cc1-c1cc(=O)c2c(F)c(C#CC3(O)COC3)c(F)cc2[nH]1` [Example 7, 3-(5,7-Difluoro-6-((3-hydroxyoxetan-3-yl)ethynyl)-4-oxo-1,4-dihydroquinolin-2-yl)-4-(methylsulfonyl)benzonitrile], the Emax was found to be 207% and the EC50 is < 100 nM.
In the case of `CC(C)(N)C#Cc1c(F)cc2[nH]c(-c3cc(C#N)ccc3S(C)(=O)=O)cc(=O)c2c1F` [Example 8, 3-(6-(3-Amino-3-methylbut-1-yn-1-yl)-5,7-difluoro-4-oxo-1,4-dihydroquinolin-2-yl)-4-(methylsulfonyl)benzonitrile], the Emax came out at 208% and the concentration for a half-maximal effect (EC50) is < 100 nM.
Turning to `CS(=O)(=O)c1ccc(C#N)cc1-c1cc(=O)c2c(F)c(C#CC3CC3)c(F)cc2[nH]1` [Example 9, 3-(6-(Cyclopropylethynyl)-5,7-difluoro-4-oxo-1,4-dihydroquinolin-2-yl)-4-(methylsulfonyl)benzonitrile], the Emax amounted to 359% and the EC50 was < 100 nM.
As to `CC(C)(C)C#Cc1c(F)cc2[nH]c(-c3cc(C#N)ccc3S(C)(=O)=O)cc(=O)c2c1F` [Example 10, 3-(6-(3,3-Dimethylbut-1-yn-1-yl)-5,7-difluoro-4-oxo-1,4-dihydroquinolin-2-yl)-4-(methylsulfonyl)benzonitrile], the concentration giving a half-maximal response (EC50) is < 100 nM.
For the molecule `CS(=O)(=O)c1ccc(C#N)cc1-c1cc(=O)c2c(F)c(C#Cc3ccccc3)c(F)cc2[nH]1` [Example 11, 3-(5,7-Difluoro-4-oxo-6-(phenylethynyl)-1,4-dihydroquinolin-2-yl)-4-(methylsulfonyl)benzonitrile], the Emax was 435% and the EC50 is < 100 nM.
For the molecule `Cn1cc(C#Cc2c(F)cc3[nH]c(-c4cc(C#N)ccc4S(C)(=O)=O)cc(=O)c3c2F)cn1` [Example 12, 3-(5,7-Difluoro-6-((1-methyl-1H-pyrazol-4-yl)ethynyl)-4-oxo-1,4-dihydroquinolin-2-yl)-4-(methylsulfonyl)benzonitrile], the Emax turned out to be 181% and the EC50 is < 100 nM.
On to `CS(=O)(=O)c1ccc(C#N)cc1-c1cc(=O)c2c(F)c(C3CC3)c(F)cc2[nH]1` [Example 13, 3-(6-Cyclopropyl-5,7-difluoro-4-oxo-1,4-dihydroquinolin-2-yl)-4-(methylsulfonyl)benzonitrile], for which the Emax was 187% and the EC50 is < 100 nM.
Regarding `Cc1ccccc1C#Cc1c(F)cc2[nH]c(-c3cc(C#N)ccc3S(C)(=O)=O)cc(=O)c2c1F` [Example 17, 3-(5,7-Difluoro-4-oxo-6-(o-tolylethynyl)-1,4-dihydroquinolin-2-yl)-4-(methylsulfonyl)benzonitrile], the Emax was found to be 613% and the 50% effective concentration (EC50) was < 100 nM.
For the molecule `CS(=O)(=O)c1ccc(C#N)cc1-c1cc(=O)c2c(F)c(OCc3ccccc3)c(F)cc2[nH]1` [Example 18, 3-(6-(Benzyloxy)-5,7-difluoro-4-oxo-1,4-dihydroquinolin-2-yl)-4-(methylsulfonyl)benzonitrile], the EC50 was < 100 nM.
For `CC#Cc1c(F)cc2[nH]c(-c3cc(C#N)ccc3S(C)(=O)=O)cc(=O)c2c1F` [Example 19, 3-(5,7-Difluoro-4-oxo-6-(prop-1-yn-1-yl)-1,4-dihydroquinolin-2-yl)-4-(methylsulfonyl)benzonitrile], the Emax is 208% and the 50% effective concentration (EC50) is < 100 nM.
For `CCC#Cc1c(F)cc2[nH]c(-c3cc(C#N)ccc3S(C)(=O)=O)cc(=O)c2c1F` [Example 20, 3-(6-(But-1-yn-1-yl)-5,7-difluoro-4-oxo-1,4-dihydroquinolin-2-yl)-4-(methylsulfonyl)benzonitrile], the Emax was 210% and the EC50 is < 100 nM.
On to `CC(C)C#Cc1c(F)cc2[nH]c(-c3cc(C#N)ccc3S(C)(=O)=O)cc(=O)c2c1F` [Example 21, 3-(5,7-Difluoro-6-(3-methylbut-1-yn-1-yl)-4-oxo-1,4-dihydroquinolin-2-yl)-4-(methylsulfonyl)benzonitrile], for which the 50% effective concentration (EC50) was < 100 nM.
For the molecule `CS(=O)(=O)c1ccc(C#N)cc1-c1cc(=O)c2c(F)c(C#Cc3ccncc3)c(F)cc2[nH]1` [Example 22, 3-(5,7-Difluoro-4-oxo-6-(pyridin-4-ylethynyl)-1,4-dihydroquinolin-2-yl)-4-(methylsulfonyl)benzonitrile], the half-maximal effective concentration (EC50) is < 100 nM.
As to `CC(C)(F)C#Cc1c(F)cc2[nH]c(-c3cc(C#N)ccc3S(C)(=O)=O)cc(=O)c2c1F` [Example 23, 3-(5,7-Difluoro-6-(3-fluoro-3-methylbut-1-yn-1-yl)-4-oxo-1,4-dihydroquinolin-2-yl)-4-(methylsulfonyl)benzonitrile], the Emax was found to be 316% and the concentration giving a half-maximal response (EC50) was < 100 nM.
Regarding `CS(=O)(=O)c1ccc(C#N)cc1-c1cc(=O)c2c(F)c(C#CC3COC3)c(F)cc2[nH]1` [Example 24, 3-(5,7-Difluoro-6-(oxetan-3-ylethynyl)-4-oxo-1,4-dihydroquinolin-2-yl)-4-(methylsulfonyl)benzonitrile], the Emax worked out at 197% and the EC50 was < 100 nM.
On to `CS(=O)(=O)c1ccc(C#N)cc1-c1cc(=O)c2c(F)c(CCC3CCOCC3)c(F)cc2[nH]1` [Example 25, 3-(5,7-Difluoro-4-oxo-6-(2-(tetrahydro-2H-pyran-4-yl)ethyl)-1,4-dihydroquinolin-2-yl)-4-(methylsulfonyl)benzonitrile], for which the concentration giving a half-maximal response (EC50) was < 100 nM.
For the molecule `CS(=O)(=O)c1ccc(C#N)cc1-c1cc(=O)c2c(F)c(OCC3CCC3)c(F)cc2[nH]1` [Example 26, 3-(6-(Cyclobutylmethoxy)-5,7-difluoro-4-oxo-1,4-dihydroquinolin-2-yl)-4-(methylsulfonyl)benzonitrile], the EC50 was < 100 nM.
Same read-out and setting: the result for `Cc1cc(C#Cc2c(F)cc3[nH]c(-c4cc(C#N)ccc4S(C)(=O)=O)cc(=O)c3c2F)ccn1` [Example 27, 3-(5,7-Difluoro-6-((2-methylpyridin-4-yl)ethynyl)-4-oxo-1,4-dihydroquinolin-2-yl)-4-(methylsulfonyl)benzonitrile] reads < 100 nM.
Consider `Cc1cnccc1C#Cc1c(F)cc2[nH]c(-c3cc(C#N)ccc3S(C)(=O)=O)cc(=O)c2c1F` [Example 28, 3-(5,7-Difluoro-6-((3-methylpyridin-4-yl)ethynyl)-4-oxo-1,4-dihydroquinolin-2-yl)-4-(methylsulfonyl)benzonitrile], for which the Emax came out at 293% and the EC50 was < 100 nM.
